Earlier results in patent US20100056488A1, “CORTICOSTEROID CONJUGATES AND USES THEREOF” (The McLean Hospital Corporation, priority 2002, published 2010).

Key:
[1] = test system: corticosterone production; conditions: suppression for 24 hours
[2] = test system: ether-stress induced increase in corticosterone; conditions: dose 0.025 mg/kg; higher dose necessary to fully eliminate response
[3] = test system: cortisol production or ACTH; conditions: suppression of cortisol production or ACTH

SMILES	lowest dose fully effective in suppressing basal corticosterone production [1] [mg/kg]	suppression of ether-stress induced increase in corticosterone [2]	CNS activity [3]
C[C@@H]1C[C@H]2[C@@H]3CCC4=CC(=O)C=C[C@]4(C)[C@@]3(F)[C@@H](O)C[C@]2(C)[C@@]1(O)C(=O)CO [dexamethasone]	0.025	significantly suppressed	–
C[C@]12CCC(=O)C=C1CC[C@@H]1[C@@H]2[C@@H](O)C[C@@]2(C)[C@H]1CC[C@]2(O)C(=O)COC(=O)CCC(=O)O [Hydrocortisone sodium succinate]	–	–	CNS active
